The values that follow come from patent US8435939B2, “Polypeptide anti-HIV agent containing the same” (priority 2000, dated 2013).

Where a SMILES comes first, the peptide text is derived from it. Bridges are numbered along the chain shown (N, C = ends). [ ]: non-standard residue; d: D form. 2Nal = N[C@@H](Cc1ccc2ccccc2c1)C(=O)O; Cit = NC(=O)NCCC[C@H](N)C(=O)O

The experiment relates to HIV-1 (IIIB) strain. Description: Anti-HIV activity: inhibition of MT-4 cell death by HIV infection (MTT method). The experiment is classed as cell-based. The settings on record: MT-4 CD4+ T cells infected by HIV-1 (IIIB), 37° C., 5 days, MTT; average of at least three measurements; read-out: EC50 (concentration where MT-4 cell death by HIV infection is inhibited by 50%). The method, then:
HIV-1 (IIIB) strain obtained from MOLT/HIV-1 (IIIB) cell previously infected by HIV-1 was used. The polypeptide of the present invention was added to MT-4 CD4^+ T cells infected by HIV in various kinds of concentrations, and a number of living cells after culturing at 37° C. for 5 days was determined by using a 3′-(4,5-dimethylthiazol-2-yl)-2,5-diphenyltetrazolinium bromide (MTT) method. Anti-HIV activity is shown by a concentration (EC50 value), where MT-4 cell death by HIV infection is inhibited by 50%. Cytotoxicity of the peptide according to the present invention was shown by a 50% survival concentration (Test I: CC50 value) by culturing virus-uninfected MT-4 cells with the polypeptide according to the present invention in various concentrations, and determining a number of living cells by the MTT method. Moreover, a number of living cells of human peripheral blood mononuclear cells (monocyte) (PBMC) was determined by trypan blue dyeing method, and shown by a 50% survival concentration (Test II: CC50 value). Respective ratios of the CC50 value and the EC50 value were shown as a selective index (SI). Obtained values were summarized in Table 3 using the conventionally known polypeptides T134 and T140, and an anti-HIV compound: 3′-azido-2′,3′-dideoxythymidine (AZT) used as a medicine as a control anti-HIV agent.
(In general: Tetrazolium dyes change colour on reduction, which living cells bring about.)
For `N=C(N)NCCC[C@H](NC(=O)[C@@H]1CSSC[C@H](NC(=O)[C@H](Cc2ccc3ccccc3c2)NC(=O)[C@H](CCCNC(=N)N)NC(=O)[C@@H](N)CCCNC(=N)N)C(=O)N[C@@H](Cc2ccc(O)cc2)C(=O)N[C@@H](CCCNC(=N)N)C(=O)N[C@@H](CCCCN)C(=O)N[C@H](CCCCN)C(=O)N2CCC[C@H]2C(=O)N[C@@H](Cc2ccc(O)cc2)C(=O)N[C@@H](CCCNC(=N)N)C(=O)N[C@@H](CCCNC(N)=O)C(=O)N1)C(=O)O` [Compound T140, H-Arg-Arg-Nal-Cys-Tyr-Arg-Lys-DLys-Pro-Tyr-Arg-Cit-Cys-Arg-OH, reference compound] (H-RR[2Nal]CYRK[dK]PYR[Cit]CR-OH; disulfide 4-13), the EC50 is 0.0033 µM.
The same measure for `N=C(N)NCCC[C@H](NC(=O)[C@@H]1CSSC[C@H](NC(=O)[C@H](Cc2ccc3ccccc3c2)NC(=O)[C@H](CCCNC(=N)N)NC(=O)[C@@H](N)CCCNC(=N)N)C(=O)N[C@@H](Cc2ccc(O)cc2)C(=O)N[C@@H](CCCNC(=N)N)C(=O)N[C@@H](CCCCN)C(=O)N[C@H](CCCCN)C(=O)N2CCC[C@H]2C(=O)N[C@@H](Cc2ccc(O)cc2)C(=O)N[C@@H](CCCNC(N)=O)C(=O)N[C@@H](CCCNC(N)=O)C(=O)N1)C(=O)O` [TC14006, H-Arg-Arg-Nal-Cys-Tyr-Arg-Lys-DLys-Pro-Tyr-Cit-Cit-Cys-Arg-OH] (H-RR[2Nal]CYRK[dK]PY[Cit][Cit]CR-OH; disulfide 4-13): 0.015 µM.
Regarding `N=C(N)NCCC[C@H](NC(=O)[C@@H]1CSSC[C@H](NC(=O)[C@H](Cc2c[nH]c3ccccc23)NC(=O)[C@H](CCCNC(=N)N)NC(=O)[C@@H](N)CCCNC(=N)N)C(=O)N[C@@H](Cc2ccc(O)cc2)C(=O)N[C@@H](CCCNC(=N)N)C(=O)N[C@@H](CCCCN)C(=O)N[C@H](CCCCN)C(=O)N2CCC[C@H]2C(=O)N[C@@H](Cc2ccc(O)cc2)C(=O)N[C@@H](CCCNC(=N)N)C(=O)N[C@@H](CCCNC(N)=O)C(=O)N1)C(=O)O` [Compound T134, H-Arg-Arg-Trp-Cys-Tyr-Arg-Lys-DLys-Pro-Tyr-Arg-Cit-Cys-Arg-OH, reference compound] (H-RRWCYRK[dK]PYR[Cit]CR-OH; disulfide 4-13), the EC50 worked out at 0.0083 µM.
Under `C[C@@H]1NC(=O)[C@@H]2CCCN2C(=O)[C@@H](CCCCN)NC(=O)[C@H](CCCCN)NC(=O)[C@H](CCCNC(=N)N)NC(=O)[C@H](Cc2ccc(O)cc2)NC(=O)[C@@H](NC(=O)[C@H](Cc2ccc3ccccc3c2)NC(=O)[C@H](CCCNC(=N)N)NC(=O)[C@@H](N)CCCNC(=N)N)CSSC[C@@H](C(=O)N[C@@H](CCCNC(=N)N)C(=O)O)NC(=O)[C@H](CCCNC(N)=O)NC(=O)[C@H](CCCNC(=N)N)NC1=O` [TA14009, H-Arg-Arg-Nal-Cys-Tyr-Arg-Lys-DLys-Pro-Ala-Arg-Cit-Cys-Arg-OH] (H-RR[2Nal]CYRK[dK]PAR[Cit]CR-OH; disulfide 4-13) stands 0.017 µM; under `C[C@@H]1NC(=O)[C@H](CCCNC(=N)N)NC(=O)[C@H](Cc2ccc(O)cc2)NC(=O)[C@@H](NC(=O)[C@H](Cc2ccc3ccccc3c2)NC(=O)[C@H](CCCNC(=N)N)NC(=O)[C@@H](N)CCCNC(=N)N)CSSC[C@@H](C(=O)N[C@@H](CCCNC(=N)N)C(=O)O)NC(=O)[C@H](CCCNC(N)=O)NC(=O)[C@H](CCCNC(=N)N)NC(=O)[C@H](Cc2ccc(O)cc2)NC(=O)[C@@H]2CCCN2C(=O)[C@@H](CCCCN)NC1=O` [TA14006, H-Arg-Arg-Nal-Cys-Tyr-Arg-Ala-DLys-Pro-Tyr-Arg-Cit-Cys-Arg-OH] (H-RR[2Nal]CYRA[dK]PYR[Cit]CR-OH; disulfide 4-13), 0.047 µM; under `C[C@@H]1NC(=O)[C@H](Cc2ccc(O)cc2)NC(=O)[C@@H](NC(=O)[C@H](Cc2ccc3ccccc3c2)NC(=O)[C@H](CCCNC(=N)N)NC(=O)[C@@H](N)CCCNC(=N)N)CSSC[C@@H](C(=O)N[C@@H](CCCNC(=N)N)C(=O)O)NC(=O)[C@H](CCCNC(N)=O)NC(=O)[C@H](CCCNC(=N)N)NC(=O)[C@H](Cc2ccc(O)cc2)NC(=O)[C@@H]2CCCN2C(=O)[C@@H](CCCCN)NC(=O)[C@H](CCCCN)NC1=O` [TA14005, H-Arg-Arg-Nal-Cys-Tyr-Ala-Lys-DLys-Pro-Tyr-Arg-Cit-Cys-Arg-OH] (H-RR[2Nal]CYAK[dK]PYR[Cit]CR-OH; disulfide 4-13), 0.0093 µM.
With `N=C(N)NCCC[C@H](NC(=O)[C@@H]1CSSC[C@H](NC(=O)[C@H](Cc2ccc3ccccc3c2)NC(=O)[C@H](CCCNC(=N)N)NC(=O)[C@@H](N)CCCNC(=N)N)C(=O)N[C@@H](Cc2ccc(O)cc2)C(=O)N[C@@H](CCCNC(=N)N)C(=O)N[C@@H](CCCNC(N)=O)C(=O)N[C@H](CCCCN)C(=O)N2CCC[C@H]2C(=O)N[C@@H](Cc2ccc(O)cc2)C(=O)N[C@@H](CCCNC(=N)N)C(=O)N[C@@H](CCCNC(N)=O)C(=O)N1)C(=O)O` [TC14004, H-Arg-Arg-Nal-Cys-Tyr-Arg-Cit-DLys-Pro-Tyr-Arg-Cit-Cys-Arg-OH] (H-RR[2Nal]CYR[Cit][dK]PYR[Cit]CR-OH; disulfide 4-13), the EC50 is 0.016 µM.
As to `C[C@H]1NC(=O)[C@H](CCCCN)NC(=O)[C@H](CCCNC(=N)N)NC(=O)[C@H](Cc2ccc(O)cc2)NC(=O)[C@@H](NC(=O)[C@H](Cc2ccc3ccccc3c2)NC(=O)[C@H](CCCNC(=N)N)NC(=O)[C@@H](N)CCCNC(=N)N)CSSC[C@@H](C(=O)N[C@@H](CCCNC(=N)N)C(=O)O)NC(=O)[C@H](CCCNC(N)=O)NC(=O)[C@H](CCCNC(=N)N)NC(=O)[C@H](Cc2ccc(O)cc2)NC(=O)[C@@H]2CCCN2C1=O` [TA14007, H-Arg-Arg-Nal-Cys-Tyr-Arg-Lys-DAla-Pro-Tyr-Arg-Cit-Cys-Arg-OH] (H-RR[2Nal]CYRK[dA]PYR[Cit]CR-OH; disulfide 4-13), the EC50 turned out to be 0.016 µM.
The same measure for `N=C(N)NCCC[C@H](NC(=O)[C@@H]1CSSC[C@H](NC(=O)[C@H](Cc2ccc3ccccc3c2)NC(=O)[C@H](CCCNC(=N)N)NC(=O)[C@@H](N)CCCNC(=N)N)C(=O)N[C@@H](Cc2ccc(O)cc2)C(=O)N[C@@H](CCCNC(N)=O)C(=O)N[C@@H](CCCCN)C(=O)N[C@H](CCCCN)C(=O)N2CCC[C@H]2C(=O)N[C@@H](Cc2ccc(O)cc2)C(=O)N[C@@H](CCCNC(=N)N)C(=O)N[C@@H](CCCNC(N)=O)C(=O)N1)C(=O)O` [TC14003, H-Arg-Arg-Nal-Cys-Tyr-Cit-Lys-DLys-Pro-Tyr-Arg-Cit-Cys-Arg-OH] (H-RR[2Nal]CY[Cit]K[dK]PYR[Cit]CR-OH; disulfide 4-13): 0.0028 µM.
Under `C[C@@H]1NC(=O)[C@@H](CCCCN)NC(=O)[C@H](CCCCN)NC(=O)[C@H](CCCNC(=N)N)NC(=O)[C@H](Cc2ccc(O)cc2)NC(=O)[C@@H](NC(=O)[C@H](Cc2ccc3ccccc3c2)NC(=O)[C@H](CCCNC(=N)N)NC(=O)[C@@H](N)CCCNC(=N)N)CSSC[C@@H](C(=O)N[C@@H](CCCNC(=N)N)C(=O)O)NC(=O)[C@H](CCCNC(N)=O)NC(=O)[C@H](CCCNC(=N)N)NC(=O)[C@H](Cc2ccc(O)cc2)NC1=O` [TA14008, H-Arg-Arg-Nal-Cys-Tyr-Arg-Lys-DLys-Ala-Tyr-Arg-Cit-Cys-Arg-OH] (H-RR[2Nal]CYRK[dK]AYR[Cit]CR-OH; disulfide 4-13) stands 0.017 µM.
